In PubChem BioAssay (NCI):
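96-well plates; 48 h exposure; 5 concentrations. Endpoints by linear interpolation between flanking doses. Not reached: highest tested concentration assigned. Here, GI50 denotes the concentration required for 50% inhibition of growth. TGI is the concentration that stops growth completely.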

How the values were obtained:
Experiment in all cases: growth of human tumour cells (NCI), 48 h
EKVX NSCLC = test system: EKVX NSCLC
K-562 leukemia = test system: K-562 leukemia
LOX IMVI melanoma = test system: LOX IMVI melanoma
NCI-H23 lung = test system: NCI-H23 lung
OVCAR-4 ovarian = test system: OVCAR-4 ovarian
RPMI-8226 leukemia = test system: RPMI-8226 leukemia
SNB-75 CNS = test system: SNB-75 CNS
SR leukemia = test system: SR leukemia
U251 CNS = test system: U251 CNS
CAKI-1 renal = test system: CAKI-1 renal

| SMILES | TGI (EKVX NSCLC) [µM] | TGI (K-562 leukemia) [µM] | TGI (LOX IMVI melanoma) [µM] | TGI (NCI-H23 lung) [µM] | TGI (OVCAR-4 ovarian) [µM] | TGI (RPMI-8226 leukemia) [µM] | TGI (SNB-75 CNS) [µM] | TGI (SR leukemia) [µM] | TGI (U251 CNS) [µM] | TGI (CAKI-1 renal) [µM] | GI50 (EKVX NSCLC) [µM] | GI50 (K-562 leukemia) [µM] | GI50 (LOX IMVI melanoma) [µM] | GI50 (NCI-H23 lung) [µM] | GI50 (OVCAR-4 ovarian) [µM] | GI50 (RPMI-8226 leukemia) [µM] | GI50 (SNB-75 CNS) [µM] | GI50 (SR leukemia) [µM] | GI50 (CAKI-1 renal) [µM] | GI50 (U251 CNS) [µM] |
| --- | --- | --- | --- | --- | --- | --- | --- | --- | --- | --- | --- | --- | --- | --- | --- | --- | --- | --- | --- | --- |
| O=c1c(O)c(-c2ccc(O)c(O)c2)oc2cc(O)ccc12 | 65.8 | > 100 | 32.4 | 31.8 | > 100 | > 79.9 | 18.2 | 99.8 | 35.6 |  |  |  |  |  |  |  |  |  |  |  |
| Cc1cc(N(CCC#N)CCC#N)ccc1/C=C1/CN(N2C(=O)/C(=C/c3ccc(N(CCC#N)CCC#N)cc3C)N=C2c2ccccc2)C(c2ccccc2)=N1 | > 100 | > 100 | > 100 | > 100 | > 100 |  | 51.1 | > 100 | > 100 | > 100 |  |  |  |  |  |  |  |  |  |  |
| C#C[C@@]1(O)[C@@H](CO)O[C@@H](n2cc(Cl)c3c(N)ncnc32)[C@@H]1O | 2.43 | > 100 | 0.253 | 0.957 | 3.34 | 0.607 | 0.714 | > 100 |  |  | 0.261 | 0.0993 | 0.0541 | 0.192 | 0.323 | 0.151 | 0.283 | 0.073 |  |  |
| O=c1ncc(-c2ccc(C(F)(F)F)cc2)c(NC2CCCCCC2)[nH]1 |  | 60.1 |  | 90.9 | 77.5 | 39.6 | 33.4 | 38.3 |  | 48.4 |  | 24.2 |  | 29.4 | 21.3 | 15.8 | 13.7 | 16.3 | 18.7 |  |
| CCCCCCCCCCCCCOC(=O)c1c(C)[nH]c(/C=C2\N=C(c3ccc[nH]3)C=C2OC)c1C |  | > 100 | 0.0223 | 31.4 | > 100 | > 100 | 10.9 | 0.145 | 17.7 |  |  | 0.0392 |  | 0.244 | 0.425 | 0.0498 | 0.919 | < 0.0118 | 0.0336 | 0.0764 |
| NCCCNc1ccc2c(c1)[n+]([O-])c1ccccc1[n+]2[O-] | > 100 | > 100 | 94.3 | 97.5 | 92.6 | 54.4 |  | 61.4 | 91.9 |  |  |  |  |  |  |  |  |  |  |  |
| CCc1ccccc1NC(=O)/C(CC(=O)c1c(C)n([O-])c2ccccc2[n+]1=O)=N\NS(=O)(=O)c1ccc(C)cc1 | > 100 | > 100 |  | > 100 | 90.4 | 40 | > 100 | 42.8 | > 100 |  |  |  |  |  |  |  |  |  |  |  |
| Cc1ccc(-c2csc(N(C(=O)N3CCN(c4cc5c(cc4F)c(=O)c(C(=O)O)cn5C4CC4)CC3)c3ccccc3)n2)cc1 | > 100 | > 100 | > 100 | > 100 |  | > 100 | 4.17 | > 100 | 6.73 | > 100 | 0.381 | 0.269 | 0.305 | 0.317 |  | 0.368 | 0.357 | 0.238 | 0.373 | 0.368 |
| C/C(=N\O)c1sc(-n2nc(-c3ccccc3)cc2-c2ccccc2)nc1C | > 31.6 | 24.6 | 18 | 15.1 |  | 23.6 | > 31.6 | 28.6 | 16.3 | 27.3 |  |  |  |  |  |  |  |  |  |  |
| C[C@H](c1ccc(Cl)cc1N)N1C(=O)c2cc(I)ccc2N(CCCN2CCN(C)CC2)C(=O)[C@@H]1c1ccc(Cl)cc1 | 3.21 | 3.3 |  | 5.86 | 3.43 | 3.69 |  | 2.6 | 2.85 | 2.81 | 1.55 | 1.57 |  | 2.18 | 1.74 | 1.7 |  | 1.01 | 1.3 | 1.52 |
| C=C(C)C1CC=C(C(=O)O)CC1 (stereo not drawn) | > 5000 | > 5000 | 3440 | 2200 | > 5000 |  | 3780 | 4650 | 2630 | 4080 |  |  |  |  |  |  |  |  |  |  |
| COc1cc(C(=O)C/C(CCC(=O)Nc2ccccc2[N+](=O)[O-])=N\NC(=O)C(N)=O)ccc1O | > 100 | > 100 | > 100 | > 100 | > 100 |  |  | > 100 | > 100 | > 100 |  |  |  |  |  |  |  |  |  |  |
| CC(C)(Cl)CCC1=C(Cl)C(=O)c2ccccc2C1=O |  | 10.6 | 3.26 | 9.93 | 2.89 | 4.65 | 6.44 | 5.69 | 8.67 | 3.46 |  | 1.25 | 1.73 | 2.82 | 1.55 | 1.78 | 1.69 | 2.04 | 1.87 | 2.43 |
